Assays:
Assay type in all cases: binding
AtD14 (DWARF14) [1] = biological target: T1, AtD14 (DWARF14) (Arabidopsis thaliana, UniProt Q9SQR3); assay: intrinsic tryptophan fluorescence Kd
T1 sequence (Q9SQR3 2-266): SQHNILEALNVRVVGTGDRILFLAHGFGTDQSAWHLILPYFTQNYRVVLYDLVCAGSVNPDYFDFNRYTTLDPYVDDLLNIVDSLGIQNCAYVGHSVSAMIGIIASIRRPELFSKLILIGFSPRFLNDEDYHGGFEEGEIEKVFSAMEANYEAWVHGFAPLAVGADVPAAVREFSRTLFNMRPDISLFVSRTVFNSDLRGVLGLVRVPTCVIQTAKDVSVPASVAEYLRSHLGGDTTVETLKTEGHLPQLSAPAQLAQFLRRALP

OsD14 = biological target: T2, OsD14 (Oryza sativa, UniProt Q10QA5); assay: nanoDSF Tm increase
T2 sequence (Q10QA5 1-318): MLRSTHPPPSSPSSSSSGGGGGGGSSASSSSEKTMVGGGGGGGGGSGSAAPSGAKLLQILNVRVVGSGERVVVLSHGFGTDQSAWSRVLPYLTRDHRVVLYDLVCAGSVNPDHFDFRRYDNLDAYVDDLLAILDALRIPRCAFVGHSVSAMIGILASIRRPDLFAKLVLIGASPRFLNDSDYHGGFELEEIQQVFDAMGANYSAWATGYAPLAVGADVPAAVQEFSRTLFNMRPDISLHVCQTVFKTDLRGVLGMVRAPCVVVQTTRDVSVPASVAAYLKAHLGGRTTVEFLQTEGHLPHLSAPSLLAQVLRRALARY

AtD14 (DWARF14) [2] = biological target: T1, AtD14 (DWARF14); assay: co-crystal structure

SMILES | Kd (AtD14 (DWARF14) [1]) [µM] | nanoDSF Tm increase; tryptophan fluorescence (OsD14) | Kd (AtD14 (DWARF14) [2]) [µM]
CC1=CC(O/C=C2/C(=O)OC3c4ccccc4CC23)OC1=O (racemic) [(±)-GR24] | 0.99 | – | –
CC(=O)/C=C/C=C(C)/C=C/C1=C(C)CC(O)CC1(C)C (stereo in doubt) [zaxinone] | – | tryptophan fluorescence assays confirmed the direct interaction between OsD14 and zaxinone | 1.8
